Test results taken from patent US20190085024A1, “Alpha-Ketoamide Inhibitors Of Cysteine Proteases” (Phelix Therapeutics, priority 2017, published 2019).

Key:
[1] = target: Cathepsin L (Homo sapiens, UniProt P07711); assay: Cathepsin L enzyme assay; assay type: biochemical; conditions: Ki by Morrison equation; pH 5.5, substrate Z-Phe-Arg-Amc; read-out: Cat L
Excerpt: Two wells contained DMSO only for controls.
Velocity was converted to μM/sec.

[2] = target: Calpain; assay: Calpain enzyme assay; assay type: biochemical; conditions: Ki by Morrison equation; pH 7.5, 5 mM CaCl2
[3] = target: Cathepsin B (Homo sapiens, UniProt P07858); assay: Cathepsin B enzyme assay; conditions: Cat B (μM), Ki by Morrison equation; pH 6.0, substrate Z-Phe-Arg-Amc

Sequence of Cathepsin L (P07711 114-333, species assumed): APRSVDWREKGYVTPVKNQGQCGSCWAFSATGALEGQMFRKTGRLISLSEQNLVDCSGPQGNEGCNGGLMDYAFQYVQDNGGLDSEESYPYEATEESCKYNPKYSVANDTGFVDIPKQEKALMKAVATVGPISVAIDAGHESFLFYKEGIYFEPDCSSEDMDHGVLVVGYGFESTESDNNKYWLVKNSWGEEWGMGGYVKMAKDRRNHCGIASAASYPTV

## CCC(C)C(NC(=O)C(=O)C(C)NC(=O)C(Cc1ccccc1)NC(=O)Cc1ccccc1)C(=O)NC(C)(C)C(=O)O (stereo not shown) [PHELIX149, 12-benzyl-5-(sec-butyl)-2,2,9-trimethyl-4,7,8,11,14-pentaoxo-15-phenyl-3,6,10,13-tetraazapentadecanoic acid]
[1]
  Ki: 816 nM
[2]
  Ki: > 100000 nM
[3]
  Ki: 0.0318 µM

## CCC(C)C(NC(=O)C(=O)C(Cc1ccccc1)NC(=O)C(Cc1ccccc1)NC(=O)Cc1ccccc1)C(=O)NC(C)(C)C(=O)O (stereo not shown) [PHELIX150, 9,12-dibenzyl-5-(sec-butyl)-2,2-dimethyl-4,7,8,11,14-pentaoxo-15-phenyl-3,6,10,13-tetraazapentadecanoic acid]
[1]
  Ki: 39.2 nM
[2]
  Ki: 5110 nM
[3]
  Ki: 0.0303 µM

## CC[C@H](C)[C@H](NC(=O)C(=O)C(Cc1ccccc1)NC(=O)C(Cc1ccccc1)NC(=O)Cc1ccccc1)C(=O)N1CCC[C@H]1C(=O)O (stereo partly shown) [PHELIX156, (2-oxo-4-phenyl-3-(3-phenyl-2-(2-phenylacetamido)propanamido)butanoyl)isoleucylproline]
[1]
  Ki: 1.58 nM
[2]
  Ki: 9850 nM
[3]
  Ki: 0.0102 µM

## CC(NC(=O)C(Cc1ccccc1)NC(=O)Cc1ccccc1)C(=O)C(=O)NC(Cc1ccccc1)C(=O)NC(C)(C)C(=O)O (stereo not shown) [PHELIX157, 5,12-dibenzyl-2,2,9-trimethyl-4,7,8,11,14-pentaoxo-15-phenyl-3,6,10,13-tetraazapentadecanoic acid]
[1]
  Ki: 56.2 nM
[2]
  Ki: 34600 nM
[3]
  Ki: 0.0028 µM

## CCC(C)C(NC(=O)C(=O)C(C)NC(=O)C(Cc1ccccc1)NC(=O)Cc1ccc(-c2ccccc2)cc1)C(=O)NC(C)(C)C(=O)O (stereo not shown) [PHELIX159, 15-([1,1′-biphenyl]-4-yl)-12-benzyl-5-(sec-butyl)-2,2,9-trimethyl-4,7,8,11,14-pentaoxo-3,6,10,13-tetraazapentadecanoic acid]
[1]
  Ki: 2450 nM
[2]
  Ki: 16600 nM
[3]
  Ki: 0.0414 µM

## CCC(C)C(NC(=O)C(=O)C(C)NC(=O)C(Cc1ccccc1)NC(=O)Cc1ccc2ccccc2c1)C(=O)NC(C)(C)C(=O)O (stereo not shown) [PHELIX161, 12-benzyl-5-(sec-butyl)-2,2,9-trimethyl-15-(naphthalen-2-yl)-4,7,8,11,14-pentaoxo-3,6,10,13-tetraazapentadecanoic acid]
[1]
  Ki: 1990 nM
[3]
  Ki: 0.0549 µM

## CC(NC(=O)C(Cc1ccccc1)NC(=O)Cc1ccccc1)C(=O)C(=O)NC(Cc1cccc2ccccc12)C(=O)NC(C)(C)C(=O)O (stereo not shown) [PHELIX162, 12-benzyl-2,2,9-trimethyl-5-(naphthalen-1-ylmethyl)-4,7,8,11,14-pentaoxo-15-phenyl-3,6,10,13-tetraazapentadecanoic acid]
[1]
  Ki: 402 nM
[3]
  Ki: 0.03 µM

## CCC(C)C(NC(=O)C(=O)C(C)NC(=O)C(Cc1ccccc1)NC(=O)Cc1cccc2ccccc12)C(=O)NC(C)(C)C(=O)O (stereo not shown) [PHELIX163, 12-benzyl-5-(sec-butyl)-2,2,9-trimethyl-15-(naphthalen-1-yl)-4,7,8,11,14-pentaoxo-3,6,10,13-tetraazapentadecanoic acid]
[1]
  Ki: 429 nM
[3]
  Ki: 0.0485 µM

## CCC(C)C(NC(=O)C(=O)C(C)NC(=O)C(Cc1ccc(-c2ccccc2)cc1)NC(=O)Cc1ccccc1)C(=O)NC(C)(C)C(=O)O (stereo not shown) [PHELIX165, 12-([1,1′-biphenyl]-4-ylmethyl)-5-(sec-butyl)-2,2,9-trimethyl-4,7,8,11,14-pentaoxo-15-phenyl-3,6,10,13-tetraazapentadecanoic acid]
[1]
  Ki: 453 nM
[3]
  Ki: 0.0736 µM

## CCC(C)C(NC(=O)C(=O)C(C)NC(=O)C(Cc1ccc(C(C)(C)C)cc1)NC(=O)Cc1ccccc1)C(=O)NC(C)(C)C(=O)O (stereo not shown) [PHELIX167, 5-(sec-butyl)-12-(4-(tert-butyl)benzyl)-2,2,9-trimethyl-4,7,8,11,14-pentaoxo-15-phenyl-3,6,10,13-tetraazapentadecanoic acid]
[1]
  Ki: 2600 nM
[3]
  Ki: 0.273 µM

## CCC(C)C(NC(=O)C(=O)C(C)NC(=O)C(Cc1ccc(C(F)(F)F)cc1)NC(=O)Cc1ccccc1)C(=O)NC(C)(C)C(=O)O (stereo not shown) [PHELIX168, 5-(sec-butyl)-2,2,9-trimethyl-4,7,8,11,14-pentaoxo-15-phenyl-12-(4-(trifluoro-methyl)benzyl)-3,6,10,13-tetraazapentadecanoic acid]
[1]
  Ki: 1270 nM
[3]
  Ki: 0.519 µM

## CCC(C)C(NC(=O)C(=O)C(C)NC(=O)C(Cc1ccc(F)cc1)NC(=O)Cc1ccccc1)C(=O)NC(C)(C)C(=O)O (stereo not shown) [PHELIX172, 5-(sec-butyl)-12-(4-fluorobenzyl)-2,2,9-trimethyl-4,7,8,11,14-pentaoxo-15-phenyl-3,6,10,13-tetraazapentadecanoic acid]
[1]
  Ki: 520 nM
[3]
  Ki: 0.0746 µM

## CC[C@H](C)[C@H](NC(=O)C(=O)C(Cc1ccccc1)NC(=O)C(Cc1ccccc1)NC(=O)Cc1ccccc1)C(=O)N1CSCC1C(=O)O (stereo partly shown) [PHELIX174, 3-((2-oxo-4-phenyl-3-(3-phenyl-2-(2-phenylacetamido)propanamido)butanoyl)isoleucyl)thiazolidine-4-carboxylic acid]
[1]
  Ki: 461 nM
[3]
  Ki: 0.157 µM

## CCC(C)C(NC(=O)C(=O)C(C)NC(=O)C(Cc1cccc(C)c1)NC(=O)Cc1ccccc1)C(=O)NC(C)(C)C(=O)O (stereo not shown) [PHELIX175, 5-(sec-butyl)-2,2,9-trimethyl-12-(3-methylbenzyl)-4,7,8,11,14-pentaoxo-15-phenyl-3,6,10,13-tetraazapentadecanoic acid]
[1]
  Ki: 108 nM
[3]
  Ki: 0.0069 µM

## CCC(C)C(NC(=O)C(=O)C(C)NC(=O)C(Cc1cccc(C#N)c1)NC(=O)Cc1ccccc1)C(=O)NC(C)(C)C(=O)O (stereo not shown) [PHELIX176, 5-(sec-butyl)-12-(3-cyanobenzyl)-2,2,9-trimethyl-4,7,8,11,14-pentaoxo-15-phenyl-3,6,10,13-tetraazapentadecanoic acid]
[1]
  Ki: 2690 nM
[3]
  Ki: 0.0378 µM

## CC(NC(=O)C(Cc1ccccc1)NC(=O)Cc1ccccc1)C(=O)C(=O)NC(CC1CCCCC1)C(=O)NC(C)(C)C(=O)O (stereo not shown) [PHELIX177, 12-benzyl-5-(cyclohexylmethyl)-2,2,9-trimethyl-4,7,8,11,14-pentaoxo-15-phenyl-3,6,10,13-tetraazapentadecanoic acid]
[1]
  Ki: 92.2 nM
[3]
  Ki: 0.0012 µM

## CC(NC(=O)C(Cc1ccccc1)NC(=O)Cc1ccccc1)C(=O)C(=O)N[C@@H](Cc1ccccc1)C(=O)N1CCC[C@H]1C(=O)O (stereo partly shown) [PHELIX178, (2-oxo-3-(3-phenyl-2-(2-phenylacetamido)propanamido)butanoyl)phenylalanyl proline]
[1]
  Ki: 38.5 nM
[3]
  Ki: 0.0067 µM

## CCC(C)C(NC(=O)C(=O)C(C)NC(=O)C(Cc1ccccc1)NC(=O)Cc1ccccc1)C(=O)NC(C)(C)C(=O)OC (stereo not shown) [PHELIX179, methyl 12-benzyl-5-(sec-butyl)-2,2,9-trimethyl-4,7,8,11,14-pentaoxo-15-phenyl-3,6,10,13-tetraazapentadecanoate]
[1]
  Ki: 881 nM
[3]
  Ki: 17.8 µM

## CC(NC(=O)C(Cc1ccccc1)NC(=O)Cc1ccccc1)C(=O)C(=O)NC(Cc1ccc(C(C)(C)C)cc1)C(=O)NC(C)(C)C(=O)O [PHELIX180, (5S,12)S-12-benzyl-5-(4-(tert-butyl)benzyl)-2,2,9-trimethyl-4,7,8,11,14-pentaoxo-15-phenyl-3,6,10,13-tetraazapentadecanoic acid]
[1]
  Ki: 127 nM
[3]
  Ki: 0.197 µM
